Among the data in PubChem BioAssay (NCI) are TGI values, retold here.

Some test systems named below: MDA-MB-231 breast; UACC-257 melanoma; OVCAR-5 ovarian; SW-620 colon; KM12 colon; MDA-N; PC-3 prostate; HL-60(TB) leukemia; MOLT-4 leukemia; CCRF-CEM leukemia; UACC-62 melanoma; NCI/ADR-RES ovarian; K-562 leukemia; UO-31 renal; SK-MEL-28 melanoma; HS 578T breast; OVCAR-3 ovarian; OVCAR-4 ovarian; HCT-15 colon.
Holding throughout (assay): NCI anticancer screen, dose series, 48 h

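Cultured in 96-well plates, cells were exposed to test compound for 48 hours across five concentrations. TGI: concentration producing complete growth inhibition.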 Bounds are passed on as bounds.

As to `O=c1oc2ccccc2cc1-c1csc(Nc2ccc(F)cc2)n1`, the TGI with MDA-MB-231 breast is 26 µM; in the test with UACC-257 melanoma it was greater than 52 µM; with OVCAR-5 ovarian, 20.9 µM; in the test with SW-620 colon, 15.3 µM; with KM12 colon it was 18.4 µM; in the test with MDA-N it was 16.5 µM. For the same compound, the TGI in the test on PC-3 prostate is 19.3 µM; with HL-60(TB) leukemia, 35.3 µM; with MOLT-4 leukemia, greater than 25.4 µM; with CCRF-CEM leukemia, 16.3 µM; in the test on UACC-62 melanoma, 43.9 µM; in the test on NCI/ADR-RES ovarian, 13 µM. Also, the TGI is 20.6 µM in the test on K-562 leukemia; 6.42 µM in the test on UO-31 renal; 6.6 µM with SK-MEL-28 melanoma; 4.61 µM in the test with HS 578T breast; 19.6 µM with OVCAR-3 ovarian; greater than 36 µM in the test on OVCAR-4 ovarian. The same compound had a TGI in the test on HCT-15 colon of 11.2 µM.
For the compound `O=S(=O)(SC1=NCCN1)c1ccc2ccccc2c1`, the TGI in the test with MDA-MB-231 breast is 42.9 µM; in the test with UACC-257 melanoma, greater than 100 µM; in the test on OVCAR-5 ovarian, 49.6 µM; in the test with SW-620 colon, 43.6 µM; with KM12 colon, 44.1 µM; in the test on MDA-N, 43.9 µM. The TGI with PC-3 prostate was greater than 100 µM; in the test with HL-60(TB) leukemia it was 38.4 µM; in the test with MOLT-4 leukemia, 56.8 µM; in the test with CCRF-CEM leukemia, 68 µM; with UACC-62 melanoma, greater than 100 µM; in the test with NCI/ADR-RES ovarian it was 51.8 µM. The TGI was 55 µM in the test with K-562 leukemia; greater than 100 µM in the test with UO-31 renal; greater than 100 µM in the test with SK-MEL-28 melanoma; greater than 100 µM in the test with HS 578T breast; 97.2 µM with OVCAR-3 ovarian; greater than 100 µM with OVCAR-4 ovarian. In the test with HCT-15 colon, this compound yielded a TGI of 71 µM.
Turning to `COC(=O)c1cc(C)ccc1C1CN=NC12Cc1ccc(C)cc1C2=O` (centres undefined), the TGI in the test with MDA-MB-231 breast, with UACC-257 melanoma, in the test on OVCAR-5 ovarian, in the test on SW-620 colon, in the test with KM12 colon and in the test with MDA-N was greater than 100 µM in each case. Besides, the TGI is greater than 100 µM in the test with PC-3 prostate; 37.5 µM with HL-60(TB) leukemia; 80.6 µM in the test on MOLT-4 leukemia; greater than 100 µM in the test with CCRF-CEM leukemia; greater than 100 µM in the test on UACC-62 melanoma; greater than 100 µM in the test on NCI/ADR-RES ovarian. Besides, the TGI in the test with K-562 leukemia, in the test on UO-31 renal, with SK-MEL-28 melanoma, in the test on HS 578T breast, in the test on OVCAR-3 ovarian and in the test with OVCAR-4 ovarian was greater than 100 µM each time. The TGI in the test with HCT-15 colon is greater than 100 µM.
For `COc1ccc(C[C@@H](CO)NC2=C(C#N)CCC2)cc1`, the TGI with MDA-MB-231 breast was greater than 100 µM; with UACC-257 melanoma, greater than 100 µM; in the test on OVCAR-5 ovarian, greater than 100 µM; in the test on SW-620 colon, greater than 100 µM; in the test with KM12 colon it was 63.5 µM; with MDA-N, greater than 100 µM. In addition, the TGI with PC-3 prostate was greater than 100 µM; with HL-60(TB) leukemia, 27.8 µM; in the test with MOLT-4 leukemia, greater than 100 µM; in the test with CCRF-CEM leukemia, greater than 100 µM; with UACC-62 melanoma, greater than 100 µM; in the test on NCI/ADR-RES ovarian it was greater than 100 µM. Besides, the TGI was greater than 100 µM in the test with K-562 leukemia; greater than 100 µM in the test with UO-31 renal; greater than 100 µM in the test on SK-MEL-28 melanoma; 93 µM in the test on HS 578T breast; greater than 100 µM with OVCAR-3 ovarian; greater than 100 µM in the test with OVCAR-4 ovarian. Further, in the test with HCT-15 colon, the TGI was greater than 100 µM.
For `C[N+](C)(C)CCCSc1nc2ccccc2[nH]1`, the TGI in the test with MDA-MB-231 breast, in the test with UACC-257 melanoma, in the test on OVCAR-5 ovarian, in the test with SW-620 colon, in the test on KM12 colon and in the test on MDA-N was greater than 100 µM each time. Further, the TGI in the test with PC-3 prostate, with HL-60(TB) leukemia, with MOLT-4 leukemia, with CCRF-CEM leukemia, in the test with UACC-62 melanoma and with NCI/ADR-RES ovarian was greater than 100 µM in each case. Also, the TGI with K-562 leukemia, in the test with UO-31 renal, in the test with SK-MEL-28 melanoma, in the test on HS 578T breast, with OVCAR-3 ovarian and in the test with OVCAR-4 ovarian was greater than 100 µM each time. In the test on HCT-15 colon, this compound showed a TGI greater than 100 µM.
Consider `CC(C)(C)C(=O)OCOP(=O)(OCOC(=O)C(C)(C)C)OCC1OC(n2ccc(=O)[nH]c2=O)C(N=[N+]=[N-])C1O` (centres undefined), for which the TGI was 21.1 µM with MDA-MB-231 breast; 18.1 µM with UACC-257 melanoma; 16.1 µM in the test with OVCAR-5 ovarian; 18.2 µM in the test on SW-620 colon; 12.8 µM in the test with KM12 colon; 15.8 µM in the test on MDA-N. Moreover, the TGI in the test on PC-3 prostate was 14.1 µM; in the test with HL-60(TB) leukemia, 4.84 µM; with MOLT-4 leukemia, 31.4 µM; in the test with CCRF-CEM leukemia, 13.3 µM; with UACC-62 melanoma it was 14.6 µM; in the test with NCI/ADR-RES ovarian it was 23.5 µM. In addition, the TGI with K-562 leukemia is greater than 100 µM; in the test with UO-31 renal it was 4.58 µM; in the test on SK-MEL-28 melanoma it was 24 µM; in the test on HS 578T breast, 7.64 µM; in the test with OVCAR-3 ovarian, 3.25 µM; in the test on OVCAR-4 ovarian it was 14 µM. For the same compound, in the test with HCT-15 colon, the TGI worked out at 10.7 µM.
